Test results taken from patent US20070077283A1, “METHOD OF ENHANCING TRANSMUCOSAL DELIVERY OF THERAPEUTIC COMPOUNDS” (Nastech Pharmaceutical Company Inc., priority 2005, published 2007).

Key:
[1] = test system: human-derived tracheal/bronchial epithelial cells (EpiAirway Tissue Model); assay: Transepithelial electrical resistance (TER) of an epithelial cell monolayer; assay type: cell-based
Procedure: Inserts are feed for each day of recovery. TER measurements were accomplished using the Endohm-12 Tissue Resistance Measurement Chamber connected to the EVOM Epithelial Voltohmmeter (World Precision Instruments, Sarasota, Fla.) with the electrode leads. The electrodes and a tissue culture blank insert were equilibrated for at least 20 minutes in MatTek medium with the power off prior to checking calibration. The background resistance was measured with 1.5 ml media in the Endohm tissue chamber and 300 μl media in the blank insert. The top electrode was adjusted so that it was close to, but not making contact with, the top surface of the insert membrane. Background resistance of the blank insert was about 5-20 ohms. […] TER values are a function of the surface area of the tissue. […] By this method of calculation, TER will be expressed as both Ohms*cm2 and percent original TER value. […] Several different lipid types (see Table 1) were screened to select for lipids that are capable of enhancing the permeation of a biological agent across an epithelial cell monolayer. […] A reduction in TER correlates with the ability to enhance the permeation of a molecule and biological agent across an epithelia.

[2] = test system: human-derived tracheal/bronchial epithelial cells (EpiAirway Tissue Model); assay: FITC-Dextran permeation assay across epithelial cell monolayer; assay type: cell-based; conditions: for Mean % FD3 Permeation: FITC-dextran 3000 (Table 4); for permeation of FD3 relative to negative controls: text summary of Table 4
Procedure: Each tissue insert was placed in an individual well containing 1 ml of MatTek basal media. On the apical surface of the inserts, 20 μl of test formulation was applied according to study design, and the samples were placed on a shaker (˜100 rpm) for 1.5 hours at 37° C. FITC-labeled dextran solution was added to inserts apically and a fluorescence measurement was taken from the basolateral media after the incubation period. Two hundred microliters of the basal media for each test formulation was transferred to a dark-wall fluorescent reading plate. Each test formulation was tested in triplicate. Fluorescent intensity was measured at 470 nM with the microplate fluorescence reader FLx800 (Bio-Tek Instruments, Inc., Winooski, Vt.). A FITC labeled dextran with a molecular weight of 3 kDA, 10 kDA, 20 kDA, 40 kDA, 70 kDA and/or 500 kDA was used to assess the ability of individual lipids to deliver a model protein across an epithelia.
Permeation is expressed as percent permeation and was calculated as follows: [formula] [formula] Terms
PBS and 0.3% Triton-X100™ served as […]. […] FD permeation was presented as the percent of FD that crossed from the apical side of the epithelial cell monolayer to the basolateral cell surface.

[3] = test system: human-derived tracheal/bronchial epithelial cells (EpiAirway Tissue Model); assay: in vitro
Procedure: Normal, human-derived tracheal/bronchial epithelial cells will serve as the model cell system for assessing the lipids listed in Table 1. The cells are supplied by MatTek Corp. (Ashland, Mass.) as the EpiAirway™ Tissue Model. The cells are provided as a confluent monolayer on a Millipore Milicell-CM cell culture insert with a pore size of 0.4 μM, inner diameter of 0.8 cm and surface area of 0.6 cm^2 and comprised of transparent hydrophilic Teflon (PTFE). Upon receipt, the membranes are cultured in 1 ml basal media (phenol red-free and hydrocortisone-free Dulbecco's Modified Eagle's Media (DMEM) at 37° C./5% CO2 for 24-48 hours before use. Inserts are feed for each day of recovery.
The amount of cell death was assayed by measuring the loss of lactate dehydrogenase (LDH) from the cells using a CytoTox 96 Cytotoxicity Assay Kit (Promega Corp., Madison, Wis.). A treatment of 1% Octylphenolpoly(ethyleneglycolether)x (Triton X-100™) diluted in PBS was used as a lysis control. One percent Triton X-100™ mediated cell lysis was normalized to 100%. For basal-lateral LDH levels, triplicates of 50 μl of the basal media were loaded into a 96-well assay plate. For apical LDH levels, 150 μl of Epi-Cm was added to the apical side of each chamber and mixed by pipeting. One hundred and fifty microliters was then removed and diluted 2-fold prior to performing the LDH assay. All apical LDH assay were performed in triplicate and with 50 μl of the diluted test solution. Fresh, cell-free culture medium will be used as a blank. Total LDH levels were determined by lysing cells in a final concentration of 0.9% Triton-X100™. Fifty microliters of substrate solution was added to each well and the plates incubated for 30 minutes at room temperature in the dark. Following incubation, 50 μl of stop solution was added to each well and the plates read on an optical density plate reader at […]. Cytotoxicity was expressed as a percentage calculated by subtracting the average absorbance of the PBS control wells as the endogenously released LDH level and expressing that value relative to the average Triton-X100 control, which represents total LDH content. [formula] Osmolality
For the instant application, phosphate buffered saline (PBS) served as a negative control for both the TER assay and LDH (cytotoxicity) assay. […] TER measurements and LDH levels were taken immediately after a one hour treatment of the cultured cells with each lipid, unless specified otherwrise.
TER reduction was expressed as the percent decrease in TER value from time zero to one hour post-treatment. Thus, greater percent reduction in TER represents less electrical resistance across the epithelial cell monolayer and consequently greater epithelial cell permeation. Cytotoxicity (LDH levels) for each lipid was expressed as a percent of the LDH levels measured after Triton-X100 treatment of the cells. Triton-X100™ LDH levels were normalized to 100%.

[4] = lipid 1000 μM, lower value = greater TER reduction (Table 4)
[5] = lipid 1000 μM, percent decrease in TER from time zero
[6] = lipid 1000 μM, percent of Triton-X100 LDH levels
[7] = lipid 125 μM, percent of Triton-X100 LDH levels
[8] = lipid 250 μM, percent of Triton-X100 LDH levels
[9] = lipid 500 μM, percent of Triton-X100 LDH levels
[10] = positive controls, concentration N/A (Special Sauce; 0.3% Triton-X100)
[11] = positive controls: Special Sauce 1X, 1% Triton (Table 4)

Compound: CC/C=C\C/C=C\C/C=C\C/C=C\C/C=C\CCCC(=O)O[C@H](COCCCCCCCCCCCCCCCC)COP(=O)([O-])OCC[N+](C)(C)C [C16-20:5 PC, 1-O-Hexadecyl-2-Eicosapentaenoyl-sn-Glycero-3-Phosphocholine]
- Mean % of Original TER Value [1, 4]: 90%
- Mean % FD3 Permeation ([2]; lipid 1000 μM): 0%
- Mean % Relative Cytotoxic Effect (LDH) ([3]; lipid 1000 μM (Table 4)): −1%

Compound: CCCCCCCCCCCCC/C=C/[C@@H](O)[C@@H](N)CO[C@@H]1O[C@H](CO)[C@@H](O[C@@H]2O[C@H](CO)[C@H](O)[C@H](O)[C@H]2O)[C@H](O)[C@H]1O [Lactosyl(β) Sphingosine, D-Lactosyl-β1-1′-D-erythro-Sphingosine]
- Mean TER Reduction 1 hr. Post-treatment [1, 5]: 95%
- % FITC-Dextran Permeation FD10 ([2]; lipid 1000 μM): 5%
- % FITC-Dextran Permeation FD40 ([2]; lipid 1000 μM): 2%
- % FITC-Dextran Permeation FD3 ([2]; lipid 1000 μM (Table 5)): 8%
- Cytotoxic Effect (LDH) 1 hr. Post-treatments [3, 6]: 14%

Compound: 1,3-Di(3-sn-Phosphatidyl)-sn-Glycerol Disodium Salt [Cardiolipin (sodium salt)]
- Mean TER Reduction 1 hr. Post-treatment [1, 5]: 32%
- Cytotoxic Effect (LDH) 1 hr. Post-treatments [3, 6]: 21%

Compound: 1-Alkyl-2-Acetoyl-sn-Glycero-3-Phosphocholine [Platelet-Activation Factor]
- Mean TER Reduction 1 hr. Post-treatment [1, 5]: 35%
- Cytotoxic Effect (LDH) 1 hr. Post-treatments [3, 6]: 19%

Compound: CCCCCCCCCCCCC/C=C/[C@@H](O)[C@H](COP(=O)(O)O)NC(C)=O.N [N-acetoyl ceramide-1-phosphate, (2S,3R,4E)-2-Acetoylaminooctadec-4-Ene-1,3-Diol-1-Phosphate (Ammonium Salt)]
- Mean TER Reduction 1 hr. Post-treatment ([1]; lipid 125 μM): 24%
- Mean TER Reduction 1 hr. Post-treatment ([1]; lipid 250 μM): 23%
- Mean TER Reduction 1 hr. Post-treatment ([1]; lipid 500 μM): 29%
- Mean TER Reduction 1 hr. Post-treatment [1, 5]: 42%
- Cytotoxic Effect (LDH) 1 hr. Post-treatments [3, 7]: 2%
- Cytotoxic Effect (LDH) 1 hr. Post-treatments [3, 8]: 2%
- Cytotoxic Effect (LDH) 1 hr. Post-treatments [3, 9]: 2%
- Cytotoxic Effect (LDH) 1 hr. Post-treatments [3, 6]: 2%

Compound: CCCCCCCCCCCCCCCCOC[C@H](COP(=O)(O)OCC[N+](C)(C)C)OC [2-O-Methyl-PAF, 1-O-Hexadecyl-2-O-Methyl-sn-Glycero-3-Phosphorylcholine]
- Mean % of Original TER Value ([1]; lipid 500 μM (Table 4)): 8%
- Mean % of Original TER Value [1, 4]: 2%
- Mean % FD3 Permeation ([2]; lipid 500 μM): 7%
- Mean % FD3 Permeation ([2]; lipid 1000 μM): 16%
- permeation of FD3 relative to negative controls [2]: enhanced the permeation of FD3 above that of the negative controls
- Mean % Relative Cytotoxic Effect (LDH) ([3]; lipid 500 μM (Table 4)): 18%
- Mean % Relative Cytotoxic Effect (LDH) ([3]; lipid 1000 μM (Table 4)): 20%

Compound: 1-Alkyl-2-Hydroxy-sn-Glycero-3-Phosphocholine [Lyso-Platelet-Activation Factor]
- Mean TER Reduction 1 hr. Post-treatment ([1]; lipid 62.5 μM): 48%
- Mean TER Reduction 1 hr. Post-treatment ([1]; lipid 125 μM): 23%
- Mean TER Reduction 1 hr. Post-treatment ([1]; lipid 250 μM): 29%
- Mean TER Reduction 1 hr. Post-treatment ([1]; lipid 500 μM): 61%
- Mean TER Reduction 1 hr. Post-treatment [1, 5]: 84%
- Cytotoxic Effect (LDH) 1 hr. Post-treatments ([3]; lipid 62.5 μM, percent of Triton-X100 LDH levels): 2%
- Cytotoxic Effect (LDH) 1 hr. Post-treatments [3, 7]: 3%
- Cytotoxic Effect (LDH) 1 hr. Post-treatments [3, 8]: 6%
- Cytotoxic Effect (LDH) 1 hr. Post-treatments [3, 9]: 22%
- Cytotoxic Effect (LDH) 1 hr. Post-treatments [3, 6]: 34%

Compound: CC/C=C\C/C=C\C/C=C\C/C=C\C/C=C\C/C=C\CCC(=O)O[C@H](COCCCCCCCCCCCCCCCC)COP(=O)([O-])OCC[N+](C)(C)C [C16-22:6 PC, 1-O-Hexadecyl-2-Docosahexaenoyl-sn-Glycero-3-Phosphocholine]
- Mean % of Original TER Value [1, 4]: 97%
- Mean % FD3 Permeation ([2]; lipid 1000 μM): 0%
- Mean % Relative Cytotoxic Effect (LDH) ([3]; lipid 1000 μM (Table 4)): −1%

Compound: CCCCCCCCCCCCC/C=C/[C@@H](O)[C@@H](N)CO[C@@H]1O[C@H](CO)[C@H](O)[C@H](O)[C@H]1O [Galactosyl sphingosine, D-Galactosyl-β1-1′-D-erythro-Sphingosine]
- Mean TER Reduction 1 hr. Post-treatment ([1]; lipid 125 μM): 36%
- Mean TER Reduction 1 hr. Post-treatment ([1]; lipid 250 μM): 43%
- Mean TER Reduction 1 hr. Post-treatment ([1]; lipid 500 μM): 42%
- Mean TER Reduction 1 hr. Post-treatment [1, 5]: 91%
- Cytotoxic Effect (LDH) 1 hr. Post-treatments [3, 7]: 2%
- Cytotoxic Effect (LDH) 1 hr. Post-treatments [3, 8]: 3%
- Cytotoxic Effect (LDH) 1 hr. Post-treatments [3, 9]: 2%
- Cytotoxic Effect (LDH) 1 hr. Post-treatments [3, 6]: 26%

Compound: CCCCCCCCCCCCCCCCOC[C@H](COP(=O)(O)OCC[N+](C)(C)C)OCC [2-O-Ethyl-PAF, 1-O-Hexadecyl-2-O-Ethyl-sn-Glycero-3-Phosphorylcholine]
- Mean % of Original TER Value ([1]; lipid 500 μM (Table 4)): 112%
- Mean % of Original TER Value [1, 4]: 70%
- Mean % FD3 Permeation ([2]; lipid 500 μM): 1%
- Mean % FD3 Permeation ([2]; lipid 1000 μM): 2%
- permeation of FD3 relative to negative controls [2]: enhanced the permeation of FD3 above that of the negative controls
- Mean % Relative Cytotoxic Effect (LDH) ([3]; lipid 500 μM (Table 4)): 1%
- Mean % Relative Cytotoxic Effect (LDH) ([3]; lipid 1000 μM (Table 4)): 2%

Compound: Octylphenolpoly(ethyleneglycolether)x [Triton-X100, reference compound]
- % of the original TER value ([1]; controls of the further test of lipids at 250 μM to 1000 μM (b219-b220)): −6%
- Mean TER Reduction 1 hr. Post-treatment [1, 10]: 100%
- Mean % of Original TER Value [1, 11]: −7%
- % Relative Cytotoxic Effect (LDH) ([3]; in the presence of FITC-Dextran FD3 (Table 6)): 99%
- Cytotoxic Effect (LDH) 1 hr. Post-treatments [3, 10]: 100%
- Mean % Relative Cytotoxic Effect (LDH) [3, 11]: 100%
- % Cytotoxicity ([3]; treatment alone, no lipid, apical LDH release (Table 8), Triton 0.3%): 100%

Compound: CCCCCCCCCCCCCCCCOC[C@H](CO)OC(C)=O [C16-02:0 DG, 1-O-Hexadecyl-2-Acetoyl-sn-Glycerol]
- activity at 1000 µM ([1]; Homo sapiens, Epithelial cell, 1 h, lipid 1000 μM, lower value = greater TER reduction (Table 4), read-out: Mean % of Original TER Value): 98%
- Mean % FD3 Permeation ([2]; lipid 1000 μM): 0%
- Mean % Relative Cytotoxic Effect (LDH) ([3]; human, 1 h, 1000 μM): −3%
